Like-named read-outs stand apart in the source and are kept apart here.

For assay [1], the target named is T1, wildtype LRRK2 (Homo sapiens, UniProt Q5S007).
T1 construct: expressed in transfected cells; host or cells: HEK293 (ATCC CRL-1573), transient transfection, mammalian expression vector with ubiquitin promoter
The assay is described as follows: LRRK2 degradation assay, HiBit-tagged wildtype LRRK2 expressed from plasmid in HEK293 cells (Nano-Glo Dual-Luciferase). The format is cell-based. The settings on record: 24 hours; for Dmax: read-out: **WT Dmax (%); for DC50: read-out: *WT DC50. The gist of the method: (§1)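 Degradation read as Nano-Glo HiBiT signal over firefly luciferase (cell number/viability) after 24 h compound exposure of transiently transfected HEK293 expressing C-terminally HiBiT-tagged wildtype or G2019S LRRK2. Data as % DMSO; DC50/Dmax fitted per plate, triplicate plates repeated twice.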

The target in assay [2] is T2, G2019S LRRK2 (Homo sapiens, UniProt Q5S007, G2019S).
T2 construct: expressed in transfected cells; host or cells: HEK293 (ATCC CRL-1573), transient transfection, mammalian expression vector with ubiquitin promoter
Briefly: LRRK2 degradation assay, HiBit-tagged G2019S LRRK2 expressed from plasmid in HEK293 cells (Nano-Glo Dual-Luciferase). The format is cell-based. The settings on record: 24 hours. The procedure, abridged:
as §1

Setting [3] is: HiBit-tagged wildtype LRRK2 in HEK293 cells.
[4] abbreviates: HiBit-tagged G2019S LRRK2 in HEK293 cells.
[5] abbreviates: HiBit-tagged wildtype LRRK2, HEK293 cells.
Where [6] appears, read: HiBit-tagged G2019S LRRK2, HEK293 cells.

T2 sequence (Q5S007 whole entry G2019S): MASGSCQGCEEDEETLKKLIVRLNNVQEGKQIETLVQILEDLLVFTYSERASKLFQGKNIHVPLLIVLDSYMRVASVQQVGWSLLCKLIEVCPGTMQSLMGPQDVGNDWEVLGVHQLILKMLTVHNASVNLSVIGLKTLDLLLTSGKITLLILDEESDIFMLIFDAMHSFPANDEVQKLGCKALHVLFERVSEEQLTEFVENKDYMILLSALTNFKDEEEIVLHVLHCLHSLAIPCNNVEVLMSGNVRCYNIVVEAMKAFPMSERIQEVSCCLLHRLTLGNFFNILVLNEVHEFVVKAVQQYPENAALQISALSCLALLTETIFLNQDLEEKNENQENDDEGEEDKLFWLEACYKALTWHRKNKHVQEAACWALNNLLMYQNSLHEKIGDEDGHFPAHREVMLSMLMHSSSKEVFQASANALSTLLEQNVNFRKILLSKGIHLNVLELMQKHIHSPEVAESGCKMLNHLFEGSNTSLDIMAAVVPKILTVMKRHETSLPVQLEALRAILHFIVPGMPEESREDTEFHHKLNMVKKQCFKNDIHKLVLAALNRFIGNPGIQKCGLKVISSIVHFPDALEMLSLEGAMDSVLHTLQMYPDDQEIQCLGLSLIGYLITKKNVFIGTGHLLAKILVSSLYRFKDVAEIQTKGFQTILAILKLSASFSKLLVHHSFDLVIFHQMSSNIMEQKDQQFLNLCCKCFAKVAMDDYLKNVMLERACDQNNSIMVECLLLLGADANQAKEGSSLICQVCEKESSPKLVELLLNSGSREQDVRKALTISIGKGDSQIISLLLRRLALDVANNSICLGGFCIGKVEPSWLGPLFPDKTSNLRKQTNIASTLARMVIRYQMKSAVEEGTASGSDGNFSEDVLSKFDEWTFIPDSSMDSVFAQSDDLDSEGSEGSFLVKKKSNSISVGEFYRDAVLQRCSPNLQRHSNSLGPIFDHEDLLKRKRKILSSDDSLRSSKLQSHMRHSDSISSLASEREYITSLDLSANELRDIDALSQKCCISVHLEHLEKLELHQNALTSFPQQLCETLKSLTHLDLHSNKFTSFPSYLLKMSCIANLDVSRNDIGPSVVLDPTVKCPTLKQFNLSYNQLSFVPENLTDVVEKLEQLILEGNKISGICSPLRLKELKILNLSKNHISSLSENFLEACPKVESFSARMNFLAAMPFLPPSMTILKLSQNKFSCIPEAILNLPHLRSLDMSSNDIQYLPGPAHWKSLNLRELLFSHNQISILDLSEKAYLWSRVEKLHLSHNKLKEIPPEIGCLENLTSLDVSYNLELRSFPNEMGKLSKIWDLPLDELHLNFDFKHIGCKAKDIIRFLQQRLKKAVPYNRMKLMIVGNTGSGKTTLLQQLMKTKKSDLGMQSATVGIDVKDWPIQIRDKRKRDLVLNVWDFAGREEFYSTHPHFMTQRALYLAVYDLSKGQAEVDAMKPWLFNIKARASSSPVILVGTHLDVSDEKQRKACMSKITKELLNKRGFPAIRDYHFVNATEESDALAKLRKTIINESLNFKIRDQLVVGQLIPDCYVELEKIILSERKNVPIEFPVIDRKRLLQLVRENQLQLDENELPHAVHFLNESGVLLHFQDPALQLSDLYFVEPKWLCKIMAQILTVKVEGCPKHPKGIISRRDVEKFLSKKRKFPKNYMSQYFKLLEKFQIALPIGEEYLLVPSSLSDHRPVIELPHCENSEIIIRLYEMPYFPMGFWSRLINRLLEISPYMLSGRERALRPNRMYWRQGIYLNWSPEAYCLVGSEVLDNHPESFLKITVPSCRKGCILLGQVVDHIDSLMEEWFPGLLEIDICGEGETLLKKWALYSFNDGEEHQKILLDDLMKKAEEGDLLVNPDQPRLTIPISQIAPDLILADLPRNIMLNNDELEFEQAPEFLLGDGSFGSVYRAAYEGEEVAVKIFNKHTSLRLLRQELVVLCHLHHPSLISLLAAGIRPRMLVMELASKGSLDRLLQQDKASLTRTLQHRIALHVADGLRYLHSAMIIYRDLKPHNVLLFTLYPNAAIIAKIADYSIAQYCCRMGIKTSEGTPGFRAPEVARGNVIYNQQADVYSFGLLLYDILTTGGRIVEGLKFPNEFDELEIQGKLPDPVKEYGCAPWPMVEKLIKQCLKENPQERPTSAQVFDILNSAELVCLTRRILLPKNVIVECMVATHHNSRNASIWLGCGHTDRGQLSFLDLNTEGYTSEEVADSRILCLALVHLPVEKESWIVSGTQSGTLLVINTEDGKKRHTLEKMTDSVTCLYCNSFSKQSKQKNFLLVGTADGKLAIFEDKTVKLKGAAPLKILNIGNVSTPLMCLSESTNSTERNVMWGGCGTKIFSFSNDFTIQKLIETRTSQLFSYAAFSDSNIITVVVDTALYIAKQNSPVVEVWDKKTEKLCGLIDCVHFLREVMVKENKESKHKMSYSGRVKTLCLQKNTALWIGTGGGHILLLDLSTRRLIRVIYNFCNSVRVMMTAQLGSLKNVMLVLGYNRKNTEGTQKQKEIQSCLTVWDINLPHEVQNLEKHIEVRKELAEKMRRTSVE
T1 sequence (Q5S007 whole entry): as the sequence (Q5S007 whole entry G2019S) above, with S2019G counted along it

Turning to `CC1(Oc2ccc3[nH]nc(-c4cc(N5CCC(O[C@@H]6CCN(CC7CCN(c8ccc9c(c8)C(=O)N(C8CCC(=O)NC8=O)C9=O)CC7)C6)CC5)ncn4)c3c2)CC1` (stereo partly drawn) [Compound 116, 2-(2,6-dioxo-3-piperidyl)-5-[4-[[(3R)-3-[[1-[6-[5-(1-methylcyclopropoxy)-1H-indazol-3-yl]pyrimidin-4-yl]-4-piperidyl]oxy]pyrrolidin-1-yl]methyl]-1-piperidyl]isoindoline-1,3-dione], in assay [1] (setting [3]), the Dmax was in the range of 50 to 70% and the DC50 is less than 10 nM. For the same molecule, in assay [2] (setting [4]), the half-maximal degradation concentration (DC50) was less than 10 nM and the Dmax was less than 50%.
For the molecule `CC1(Oc2ccc3[nH]nc(-c4cc(N5CCN(Cc6cccc(CN7CCN(c8ccc9c(c8)C(=O)N(C8CCC(=O)NC8=O)C9=O)CC7)c6)CC5)ncn4)c3c2)CC1` (centres unmarked) [Compound 170, 2-(2,6-dioxo-3-piperidyl)-5-[4-[[3-[[4-[6-[5-(1-methylcyclopropoxy)-2H-indazol-3-yl]pyrimidin-4-yl]piperazin-1-yl]methyl]phenyl]methyl]piperazin-1-yl]isoindoline-1,3-dione], the DC50 in assay [1] (setting [5]) and in assay [2] (setting [6]) was no less than 100 nM in each case.
With `CC1(Oc2ccc3[nH]nc(-c4cc(N5CCC(C(=O)N6CCC(CC7CCN(c8ccc9c(c8)C(=O)N(C8CCC(=O)NC8=O)C9=O)CC7)CC6)CC5)ncn4)c3c2)CC1` (centres unmarked) [Compound 88, 2-(2,6-dioxo-3-piperidyl)-5-[4-[[1-[1-[6-[5-(1-methylcyclopropoxy)-1H-indazol-3-yl]pyrimidin-4-yl]piperidine-4-carbonyl]-4-piperidyl]methyl]-1-piperidyl]isoindoline-1,3-dione], the Dmax in assay [1] (setting [3]) was less than 50%; in assay [2] (setting [4]), 50 to 70%. Also, the DC50 in assay [1] (setting [3]) and in assay [2] (setting [4]) was 10 to 50 nM each time.
As for `CC1(Oc2ccc3[nH]nc(-c4ccnc(N5CCC(CN6CCC(F)(CN7CCN(c8ccc9c(c8)C(=O)N(C8CCC(=O)NC8=O)C9=O)CC7)CC6)CC5)c4)c3c2)CC1` (centres unmarked) [Compound 82, 2-(2,6-dioxo-3-piperidyl)-5-[4-[[4-fluoro-1-[[1-[4-[5-(1-methylcyclopropoxy)-1H-indazol-3-yl]-2-pyridyl]-4-piperidyl]methyl]-4-piperidyl]methyl]piperazin-1-yl]isoindoline-1,3-dione], in assay [1] (setting [3]), the Dmax lay within 50 to 70% and the DC50 fell in the range of 10 to 50 nM. In assay [2] (setting [4]), this molecule returned a DC50 of 10 to 50 nM and a Dmax of 50 to 70%.
Regarding `CC1(Oc2ccc3[nH]nc(-c4cc(N5CCO[C@@H](CN6CCN(CC7CCN(c8ccc9c(c8)C(=O)N(C8CCC(=O)NC8=O)C9=O)CC7)CC6)C5)ncn4)c3c2)CC1` (stereo partly drawn) [Compound 153, 2-(2,6-dioxopiperidin-3-yl)-5-{4-[(4-{[(2S)-4-{6-[5-(1-methylcyclopropoxy)-1H-indazol-3-yl]pyrimidin-4-yl}morpholin-2-yl]methyl}piperazin-1-yl)methyl]piperidin-1-yl}-2,3-dihydro-1H-isoindole-1,3-dione], in assay [1] (setting [5]), the Dmax was less than 50% and the DC50 was less than 10 nM. In assay [2] (setting [6]), the DC50 is less than 10 nM and the Dmax is less than 50%.
On to `CC1(Oc2ccc3[nH]nc(-c4cc(N5CCC(CN6CCN(CC7CCN(c8ccc9c(c8)C(=O)N(C8CCC(=O)NC8=O)C9=O)CC7)CC6)CC5)ccn4)c3c2)CC1` (centres unmarked) [Compound 98, 2-(2,6-dioxo-3-piperidyl)-5-[4-[[4-[[1-[2-[5-(1-methylcyclopropoxy)-1H-indazol-3-yl]-4-pyridyl]-4-piperidyl]methyl]piperazin-1-yl]methyl]-1-piperidyl]isoindoline-1,3-dione], for which the DC50 in assay [1] (setting [3]) and in assay [2] (setting [4]) was no less than 100 nM in each case.
For the molecule `CC1(Oc2ccc3[nH]nc(-c4cc(N5CCC(C(=O)N6CCC(CN7CCN(c8ccc9c(c8)C(=O)N(C8CCC(=O)NC8=O)C9=O)CC7)CC6)CC5)ncn4)c3c2)CC1` (centres unmarked) [Compound 86, 2-(2,6-dioxopiperidin-3-yl)-5-(4-{[1-(1-{6-[5-(1-methylcyclopropoxy)-1H-indazol-3-yl]pyrimidin-4-yl}piperidine-4-carbonyl)piperidin-4-yl]methyl}piperazin-1-yl)-2,3-dihydro-1H-isoindole-1,3-dione], in assay [1] (setting [3]), the Dmax fell in the range of 50 to 70% and the DC50 was less than 10 nM. In assay [2] (setting [4]), this molecule had a DC50 of less than 10 nM and a Dmax of 50 to 70%.
Turning to `CC1(Oc2ccc3[nH]nc(-c4cc(N5C[C@@H]6[C@H](CN7CCN(CC8CCN(c9ccc%10c(c9)C(=O)N(C9CCC(=O)NC9=O)C%10=O)CC8)CC7)[C@@H]6C5)ncn4)c3c2)CC1` (some centres unmarked) [Compound 74, 2-(2,6-dioxo-3-piperidyl)-5-[4-[[4-[[(r, 5s, 6s)-3-[6-[5-(1-methylcyclopropoxy)-1H-indazol-3-yl]pyrimidin-4-yl]-3-azabicyclo[3.1.0]hexan-6-yl]methyl]piperazin-1-yl]methyl]-1-piperidyl]isoindoline-1,3-dione], in assay [1] (setting [3]), the Dmax was 50 to 70% and the DC50 lay within 50 to 100 nM. For the same molecule, in assay [2] (setting [4]), the DC50 was in the range of 50 to 100 nM and the Dmax was less than 50%.
For `C[C@H]1CN(c2cc(-c3n[nH]c4ccc(OC5(C)CC5)cc34)ncn2)CCN1CC1CCN(CC2(F)CCN(c3ccc4c(c3)C(=O)N(C3CCC(=O)NC3=O)C4=O)CC2)CC1` (stereo partly drawn) [Compound 70, 2-(2,6-dioxo-3-piperidyl)-5-[4-fluoro-4-[[4-[[(2S)-2-methyl-4-[6-[5-(1-methylcyclopropoxy)-1H-indazol-3-yl]pyrimidin-4-yl]piperazin-1-yl]methyl]-1-piperidyl]methyl]-1-piperidyl]isoindoline-1,3-dione], in assay [1] (setting [3]), the Dmax is less than 50% and the DC50 is less than 10 nM. In assay [2] (setting [4]), this molecule came in with a DC50 of less than 10 nM and a Dmax of less than 50%.
In the case of `C[C@H]1CN(c2cc(-c3n[nH]c4ccc(OC5(C)CC5)cc34)ncn2)CCN1CC1CCN(CCC2CCN(c3ccc4c(c3)C(=O)N(C3CCC(=O)NC3=O)C4=O)CC2)CC1` (stereo partly drawn) [Compound 159, 2-(2,6-dioxo-3-piperidyl)-5-[4-[2-[4-[[(2S)-2-methyl-4-[6-[5-(1-methylcyclopropoxy)-1H-indazol-3-yl]pyrimidin-4-yl]piperazin-1-yl]methyl]-1-piperidyl]ethyl]-1-piperidyl]isoindoline-1,3-dione], in assay [1] (setting [5]), the Dmax is less than 50% and the DC50 was less than 10 nM. For the same molecule, in assay [2] (setting [6]), the DC50 is less than 10 nM and the Dmax was 50 to 70%.
With `CC1(Oc2ccc3n[nH]c(-c4cc(N5CCC(CN6CCN(CC7CCN(c8cccc9c8CN(C8CCC(=O)NC8=O)C9=O)CC7)CC6)CC5)ncn4)c3c2)CC1` (centres unmarked) [Compound 147, 3-[4-[4-[[4-[[1-[6-[5-(1-methylcyclopropoxy)-2H-indazol-3-yl]pyrimidin-4-yl]-4-piperidyl]methyl]piperazin-1-yl]methyl]-1-piperidyl]-1-oxo-isoindolin-2-yl]piperidine-2,6-dione], the Dmax in assay [1] (setting [3]) and in assay [2] (setting [4]) was no less than 70% in each case. Besides, the DC50 in assay [1] (setting [3]) and in assay [2] (setting [4]) was less than 10 nM each time.
In the case of `CC1(Oc2ccc3[nH]nc(-c4ccnc(N5CCN(C[C@H]6CC[C@H](CN7CCN(c8ccc9c(c8)C(=O)N(C8CCC(=O)NC8=O)C9=O)CC7)CC6)CC5)c4)c3c2)CC1` (some centres unmarked) [Compound 102, 2-(2,6-dioxopiperidin-3-yl)-5-(4-{[(1r,4r)-4-[(4-{4-[5-(1-methylcyclopropoxy)-1H-indazol-3-yl]pyridin-2-yl}piperazin-1-yl)methyl]cyclohexyl]methyl}piperazin-1-yl)-2,3-dihydro-1H-isoindole-1,3-dione], in assay [1] (setting [3]), the Dmax is less than 50% and the DC50 lay in the range of 10 to 50 nM. Besides, in assay [2] (setting [4]), the DC50 lay in the range of 10 to 50 nM and the Dmax was less than 50%.
With `CC1(Oc2ccc3[nH]nc(-c4ccnc(N5CCC(CC6CCN(C(=O)C7CCN(c8ccc9c(c8)C(=O)N(C8CCC(=O)NC8=O)C9=O)CC7)CC6)CC5)c4)c3c2)CC1` (centres unmarked) [Compound 93, 2-(2,6-dioxopiperidin-3-yl)-5-(4-{4-[(1-{4-[5-(1-methylcyclopropoxy)-1H-indazol-3-yl]pyridin-2-yl}piperidin-4-yl)methyl]piperidine-1-carbonyl}piperidin-1-yl)-2,3-dihydro-1H-isoindole-1,3-dione], in assay [1] (setting [3]), the Dmax is 50 to 70% and the DC50 is 10 to 50 nM. In assay [2] (setting [4]), this molecule registered a DC50 of 10 to 50 nM and a Dmax of less than 50%.
Consider `CC1(Oc2ccc3[nH]nc(-c4ccnc(N5CCC(O[C@H]6C[C@H](OC7CCN(c8ccc9c(c8)C(=O)N(C8CCC(=O)NC8=O)C9=O)CC7)C6)CC5)c4)c3c2)CC1` (some centres unmarked) [Compound 127, 2-(2,6-dioxo-3-piperidyl)-5-[4-[3-[[1-[4-[5-(1-methylcyclopropoxy)-1H-indazol-3-yl]-2-pyridyl]-4-piperidyl]oxy]cyclobutoxy]-1-piperidyl]isoindoline-1,3-dione], for which, in assay [1] (setting [3]), the Dmax was less than 50% and the DC50 is 10 to 50 nM. In assay [2] (setting [4]), the DC50 lay in the range of 10 to 50 nM and the Dmax is less than 50%.
As to `CC1(Oc2ccc3n[nH]c(-c4cc(N5CCN(CC6(F)CCN(CC7CN(c8ccc9c(c8)C(=O)N(C8CCC(=O)NC8=O)C9=O)C7)CC6)CC5)ncn4)c3c2)CC1` (centres unmarked) [Compound 135, 2-(2,6-dioxo-3-piperidyl)-5-[3-[[4-fluoro-4-[[4-[6-[5-(1-methylcyclopropoxy)-2H-indazol-3-yl]pyrimidin-4-yl]piperazin-1-yl]methyl]-1-piperidyl]methyl]azetidin-1-yl]isoindoline-1,3-dione], the values for the Dmax in assay [1] (setting [3]) and in assay [2] (setting [4]) were less than 50% and 50 to 70%, respectively. Further, the half-maximal degradation concentration (DC50) in assay [1] (setting [3]) and in assay [2] (setting [4]) was less than 10 nM in each case.

These data come from patent publication US12559506B2, “Indazole based compounds and associated methods of use” (Arvinas Operations, Inc., priority 2021, dated 2026).
